Source: patent US8557864B2, “Agent having neurotrophic factor-like activity” (Nagoya Industrial Science Research Institute, priority 2007, dated 2013)

Experiments:
[1] = system: mice under chronic mild stress; experiment: Tail suspension test comparing compound 8 and fluvoxamine after chronic mild stress; type: in vivo; conditions: Exp. 2 (1 week after stress); compound 8 500 μg/kg, fluvoxamine 1000 μg/kg intraperitoneally once per day
Description: 7-week-old male ddY strain mice fed in one cage for 4 mice were first subjected to forced swimming for 15 minutes in the same manner as stress in Example 2 (behavior test of mice under stress) (1) described in the paragraph [0063] in the specification. Then, stress for 1 week using 3 kinds of cages was regarded as 1 cycle, and the stress was applied for 3 cycles (3 weeks) and chronic mild stress (CMS) was applied. The compound 8 and fluvoxamine were administered to mice immediately after stress in Exp. 1, 1 week after stress in Exp. 2, and 2 weeks after stress in Exp. 3, respectively, and tail suspension tests were carried out on the respective test groups. In each test group, the compound 8 was adjusted in concentration so as to have each of the doses of […] and fluvoxamine was adjusted in concentration so as to have a dose of 1000 μg/kg, by dissolving in 0.1% DMSO, and each dose of the compound 8 and fluvoxamine were intraperitoneally injected to mice once per day from the time immediately after stress. Further, to 7-week-old male ddY strain mice fed in one cage for 4 mice without stress, the compound 8 and fluvoxamine were administered to carry out the tail suspension tests in the same manner as the stressed mice. FIG. 31 show the result. A significance test was performed in a Student's t-test (*). […] “DAEE” denotes the compound 8 and “Flu” denotes fluvoxamine.

[2] = system: mRNAs of BDNF, NT-3, NGF and GR; experiment: mRNA expression of neurotrophic factors and glucocorticoid receptor in cortex of frontal lobe and hippocampus; type: in vivo, mice; conditions: 24 hours after 3 weeks of stress with compound 8, RT-PCR relative to β actin
Description: mRNA expressions of a brain-derived neurotrophic factor (hereinafter expressed as “BDNF”), neurotrophin-3 (hereinafter expressed as “NT-3”), a nervous growth factor (hereinafter expressed as “NGF”) and a glucocorticoid receptor (hereinafter expressed as “GR”) in a cortex of frontal lobe and a hippocampus of a mouse after stress were examined as follows. After 24 hours from completion of stress for 3 weeks in the same method as described in Example 2, mice administered with the compound 8 in each of the amounts of 0, 20, 100 and 500 μg/kg, at the same time as stress, and non-stressed mice administered with only a phosphoric acid buffer containing 0.1% DMSO were sacrificed and the cortexes of frontal lobes and hippocampi were excised respectively, and thereto were added TriZol. […]
The obtained precipitate was washed with 70% ethanol, dried and then dissolved in TE to form a total RNA sample. […] The fluorescence intensity of the band was read with a densitometer to digitalize and the obtained value was divided with a fluorescence intensity of a band of RT-PCR of β actin mRNA of an internal standard, which has been found separately, and a graph was formed assuming that the band value of a non-stressed mouse/β actin band value was 1.0. […]

[3] = system: mice under chronic mild stress; experiment: Elevated plus maze test after completion of stress; type: in vivo
Description: In this test, an anxiety level can be evaluated from the time for being the open arm, and a behavior amount can be evaluated from the number of times of entering the closed arm. From the evaluations, when a mouse has an anxiety symptom (condition), the time for being in the open arm […], and thus, a level of the anxiety symptom (condition) can be evaluated from the length of the time. FIGS. 8 to 11 show the results.
Example 2 is a behavior test in which the compound 8 was administered to a mouse as well as stress was applied and a suppression effect of the compound 8 on depressive and anxiety symptoms of the mouse was examined. On the other hand, the present example is a behavior test in which only stress was applied for 3 weeks without administering the compound 8 and stress was completed and a therapeutic effect of the compound 8 on depressive and anxiety symptoms of a mouse after removing stress was examined. Stress was applied to a mouse in the same manner as in Example 2. For behavior tests of mice, the burying the glass-marbles test, the tail suspension test and the elevated plus maze test were performed respectively in the same manners as in Example 2 on groups without administering the compound 8 immediately after completion of stress for 3 weeks and groups without administering the compound 8 with no stress from the start (hereinafter referred to as “non-administration groups after completion of stress”); a group administered with the compound 8 for 1 week after completion of stress and a group administered with the compound 8 for 1 week in the same manner as the former group with no stress from the start (hereinafter referred to as “1 week-administration groups after completion of stress”); and a group administered with the compound 8 for 2 weeks after completion of stress and a group administered with the compound 8 for 2 weeks in the same manner as the former group with no stress from the start (hereinafter referred to as “2 week-administration groups after completion of stress”). […]

With `CCCCCCC/C=C/C(=O)OCC` [Compound 8, trans-2-decenoic acid ethyl ester] the “effect on depressive symptom (immobility time)” value [1] was “had an effect”, the “expression of mRNAs of BDNF, NT-3, NGF and GR” value [2] was “returned to the level of non-stressed examples” and the “time for being in open arm, stressed vs non-stressed example” value ([3]; 500 μg/kg, 1 week-administration groups after completion of stress) was “no significant difference”. For the same compound, the “number of times of entering closed arm (behavior amount)” value ([3]; 1 week- and 2 week-administration groups after completion of stress, vs controls (0 μg/kg) and stressed vs non-stressed) was “no significant difference” and the “time for being in open arm, stressed vs non-stressed example” value ([3]; all administration examples, 2 week-administration group after completion of stress) was “no significant difference”.
